{"source": "patent US11135252B2", "about": "“Probiotic therapies for developmental disorders and other neurological disorders” (Baylor College of Medicine, priority 2016, dated 2021)", "test_system": "MHFD offspring", "test": "Three-chamber social test in MHFD offspring", "assay_type": "in vivo, mice", "conditions": "in drinking water, 4 weeks", "description": "Crawley's three-chamber test for sociability and preference for social novelty was performed as described (Silverman et al., 2010). In brief, the mouse first experienced a 10-minute period of habituation during which it was allowed to freely explore a 60×40×23 cm Plexiglass arena divided into three equally sized, interconnected chambers (Left, Center, Right). Sociability was measured during a second ten-minute period in which the subject could interact either with an empty wire cup (Empty) or a wire cup containing an age and sex-matched stranger conspecific (Mouse 1). Time spent interacting (sniffing, crawling upon) with either the empty cup or the stranger mouse contained in the other cup as well as time spent in each chamber was recorded using the AnyMaze software, by independent observers. Empty cup placement in the Left or Right chamber during the Sociability period was counterbalanced between trials. Finally, preference for social novelty was assayed by introducing a second stranger mouse (Mouse 2) into the previously the empty wire cup. Time spent in each chamber as well as time spent interacting with either Mouse 1 or Mouse 2 was recorded using the automated AnyMaze software by independent observers. Lactobacillus reuteri MM4-1A (ATCC-PTA-6475) and Lactobacillus johnsonii (ATCC 33200) were cultured anaerobically in MRS broth in a 90% N2, 5% CO2, 5% H2 environment. L. reuteri was heat-killed by keeping the bacteria at 80° C. for 20 minutes (Wang et al., 2010). Bacterial viability was assessed by plating and the efficacy of the heat-kill procedure was confirmed by the absence of colony growth following plating. Cultures were centrifuged, washed, and resuspended in anaerobic solution (PBS) and frozen at −80° C. until use. PBS, live or heat-killed L. reuteri were added to the drinking water, which was changed daily to minimize dosage variability. Whereas the experimental group received live bacteria, one control group received identically prepared cultures of heat-killed bacteria. A second group of control mice received water treated with PBS alone. Live and heat-killed L. reuteri were supplied at a dosage of 1×10^8 organisms/mouse/day continuously in drinking water. Mice consumed the treated water ad libitum over the treatment period. The treated drinking water for each group was replaced daily two hours prior to the onset of the dark cycle to minimize variation in microbial exposure. Behavioral assays were initiated after 4-weeks of L. reuteri or control treatment. The protocol of the L. johnsonii preparation and administration matched the L. reuteri protocol. Fecal samples for sequencing and tissue used in the immunofluorescence studies were collected at the end of the treatment. Oxytocin was obtained from Tocris Bioscience (product 1910) and solubilized in 10% dimethyl sulfoxide (DMSO) in PBS. 10% DMSO in PBS was used as the vehicle control. Mice received oxytocin intranasally (at approximately 200 μg/kg) thirty minutes prior to behavior. 1.25 μl of oxytocin or vehicle solution was injected into each nostril from P10 pipette. Oxytocin dose was selected according to dosages reported to rescue social behavior in genetic models phenotypically expressing ASD-like behaviors (Penagarikano et al., 2015).", "note": "Entries after “also recorded” stand apart in the source; their conditions may differ.", "data": [{"substance": "Lactobacillus johnsonii (ATCC 33200) [L. johnsonii]", "values": [{"measurement": "social behavior / social deficits (sociability and preference for social novelty)", "result": "failed to rescue social behaviors; also recorded: Failed to Reverse Social Deficits"}]}]}
